The record followed here is patent publication US8163793B2, “Proline derivatives” (Hoffman-La Roche Inc., priority 2009, dated 2012).

In experiment [1] the target is Cat L (UniProt P07711). The experiment is described as follows: Cathepsin enzyme inhibition assay (fluorogenic peptide substrate Z-Val-Val-Arg-AMC), Cathepsin L. Particulars: enzyme 1 nM, substrate 20 μM, pH 6.5; read-out: CatL IC50. It counts as biochemical, human and mouse. The essentials: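 Fluorogenic cleavage of Z-Val-Val-Arg-AMC (20 μM) by 1 nM Cat L was monitored at ex 360/em 465 nm for 20 min, the linear phase. The buffer was 100 mM potassium phosphate pH 6.5 with 5 mM EDTA and DTT. IC50 values were derived by standard methods, in μM.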

For experiment [2], the target named is Cathepsin S (UniProt P25774). As to the kind of experiment: Cathepsin enzyme inhibition assay (fluorogenic peptide substrate Z-Val-Val-Arg-AMC), Cathepsin S. The class given is biochemical, human and mouse. The conditions noted are these: enzyme 1 nM, substrate 20 μM, pH 6.5; read-out: CatS IC50. A digest of the protocol:
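Compounds were combined with 1 nM human or mouse enzyme, and substrate then started the reaction. The buffer was potassium phosphate (100 mM, pH 6.5) containing EDTA-Na 5 mM, Triton X-100 0.001% and […] 5 mM.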

Regarding `N#CC1(NC(=O)[C@@H]2C[C@@H](S(=O)(=O)c3ccc(N4CCN5CCC[C@H]5C4)cc3Cl)CN2C(=O)C2(c3ccc(Cl)nc3)CC2)CC1` [Example 373, (2S,4R)-4-((S)-2-Chloro-4-hexahydro-pyrrolo[1,2-a]pyrazin-2-yl-benzenesulfonyl)-1-[1-(6-chloro-pyridin-3-yl)-cyclopropanecarbonyl]-pyrrolidine-2-carboxylic acid (1-cyano-cyclopropyl)-amide; Compound with Formic Acid], the IC50 – broadly, the concentration that inhibits the measured activity by half – in experiment [1] was 42.7 nM; in experiment [2] it was 0.08 nM.
The matching figures for `N#CC1(NC(=O)[C@@H]2C[C@@H](S(=O)(=O)c3ccc(N4CCN(C5CC5)CC4)cc3Cl)CN2C(=O)C2(c3ccc(Cl)nc3)CC2)CC1` [Example 374, (2S,4R)-4-[2-Chloro-4-(4-cyclopropyl-piperazin-1-yl)-benzenesulfonyl]-1-[1-(6-chloro-pyridin-3-yl)-cyclopropanecarbonyl]-pyrrolidine-2-carboxylic acid (1-cyano-cyclopropyl)-amide; Compound with Formic Acid]: 50.3 nM and 0.07 nM.
The corresponding values for `COc1ccc(S(=O)(=O)[C@@H]2C[C@@H](C(=O)NC3(C#N)CC3)N(c3cc(C)nn3C3CCC3)C2)c(Cl)c1` [Example 375, (2S,4R)-4-(2-Chloro-4-methoxy-benzenesulfonyl)-1-(2-cyclobutyl-5-methyl-2H-pyrazol-3-yl)-pyrrolidine-2-carboxylic acid (1-cyano-cyclopropyl)-amide] are 5370 nM and 0.29 nM.
In the case of `COc1ccc(S(=O)(=O)[C@@H]2C[C@@H](C(=O)NC3(C#N)CC3)N(c3cc(C)nn3Cc3ccccc3)C2)c(Cl)c1` [Example 376, (2S,4R)-1-(2-Benzyl-5-methyl-2H-pyrazol-3-yl)-4-(2-chloro-4-methoxy-benzenesulfonyl)-pyrrolidine-2-carboxylic acid (1-cyano-cyclopropyl)-amide], the figures for the IC50 in experiment [1] and in experiment [2] were 1760 nM and 0.657 nM, respectively.
The corresponding values for `COCCOc1ccc(S(=O)(=O)[C@@H]2CC(C(=O)NC3(C#N)CC3)N(C(=O)C3(c4ccc(Cl)nc4)CC3)C2)c(Cl)c1` (stereo partly drawn) [Example 378, (R)-4-[2-Chloro-4-(2-methoxy-ethoxy)-benzenesulfonyl]-1-[1-(6-chloro-pyridin-3-yl)-cyclopropanecarbonyl]-pyrrolidine-2-carboxylic acid (1-cyano-cyclopropyl)-amide] are 200 nM and 0.1 nM.
The matching figures for `Cc1cc(N2C[C@H](S(=O)(=O)c3ccccc3Cl)C[C@H]2C(=O)NC2(C#N)CC2)n(Cc2ccccc2)n1` [Example 379, (2S,4R)-1-(2-Benzyl-5-methyl-2H-pyrazol-3-yl)-4-(2-chloro-benzenesulfonyl)-pyrrolidine-2-carboxylic acid (1-cyano-cyclopropyl)-amide]: 2710 nM and 1.75 nM.
Consider `N#CC1(NC(=O)[C@@H]2C[C@@H](S(=O)(=O)c3ccc(-n4cccn4)cc3Cl)CN2C(=O)C2(c3ccc(Cl)nc3)CC2)CC1` [Example 380, (2S,4R)-4-(2-Chloro-4-pyrazol-1-yl-benzenesulfonyl)-1-[1-(6-chloro-pyridin-3-yl)-cyclopropanecarbonyl]-pyrrolidine-2-carboxylic acid (1-cyano-cyclopropyl)-amide], for which the IC50 in experiment [1] stood at 130 nM; in experiment [2], 0.05 nM.
The matching figures for `C[C@H](Oc1ccc(S(=O)(=O)[C@@H]2C[C@@H](C(=O)NC3(C#N)CC3)N(C(=O)C3(c4ccc(Cl)nc4)CC3)C2)c(Cl)c1)C(F)(F)F` [Example 381, (2S,4R)-1-[1-(6-Chloro-pyridin-3-yl)-cyclopropanecarbonyl]-4-[2-chloro-4-((S)-2,2,2-trifluoro-1-methyl-ethoxy)-benzenesulfonyl]-pyrrolidine-2-carboxylic acid (1-cyano-cyclopropyl)-amide]: 102 nM and 0.295 nM.
The corresponding values for `N#CC1(NC(=O)[C@@H]2C[C@@H](S(=O)(=O)c3ccc(-n4ccnc4)cc3Cl)CN2C(=O)C2(c3ccc(Cl)nc3)CC2)CC1` [Example 382, (2S,4R)-4-(2-Chloro-4-imidazol-1-yl-benzenesulfonyl)-1-[1-(6-chloro-pyridin-3-yl)-cyclopropanecarbonyl]-pyrrolidine-2-carboxylic acid (1-cyano-cyclopropyl)-amide] are 68 nM and 0.04 nM.
The corresponding values for `N#CC1CCN2C[C@H](S(=O)(=O)c3ccc(F)cc3Cl)C[C@@]12C(=O)NC1(C#N)CC1` (stereo partly drawn) [Example 383, (6R,7aS)-6-(2-Chloro-4-fluoro-benzenesulfonyl)-1-cyano-tetrahydro-pyrrolizine-7a-carboxylic Acid (1-cyano-cyclopropyl)-amide] are 20000 nM and 14 nM.
In the case of `N#CC1(NC(=O)[C@@H]2C[C@@H](S(=O)(=O)c3ccc(OCC(F)(F)F)cc3Cl)CN2C(=O)C2(c3ccc4c(c3)OCO4)CC2)CC1` [Example 384, (2S,4R)-1-(1-Benzo[1,3]dioxol-5-yl-cyclopropanecarbonyl)-4-[2-chloro-4-(2,2,2-trifluoro-ethoxy)-benzenesulfonyl]-pyrrolidine-2-carboxylic acid (1-cyano-cyclopropyl)-amide], the half-maximal inhibitory concentration (IC50) was 100 nM in experiment [1] and 0.05 nM in experiment [2].
The matching figures for `Cc1cc(N2C[C@H](S(=O)(=O)c3ccc(F)cc3Cl)C[C@H]2C(=O)NC2(C#N)CC2)n(C2CCC2)n1` [Example 385, (2S,4R)-4-(2-Chloro-4-fluoro-benzenesulfonyl)-1-(2-cyclobutyl-5-methyl-2H-pyrazol-3-yl)-pyrrolidine-2-carboxylic acid (1-cyano-cyclopropyl)-amide]: 6460 nM and 0.54 nM.
The corresponding values for `Cn1nc(C(C)(C)C)cc1C(=O)N1C[C@H](S(=O)(=O)c2ccc(OCC(F)(F)F)cc2Cl)C[C@H]1C(=O)NC1(C#N)CC1` [Example 386, (2S,4R)-1-(5-tert-Butyl-2-methyl-2H-pyrazole-3-carbonyl)-4-[2-chloro-4-(2,2,2-trifluoro-ethoxy)-benzenesulfonyl]-pyrrolidine-2-carboxylic acid (1-cyano-cyclopropyl)-amide] are 4030 nM and 1.75 nM.
The matching figures for `COc1ccc(S(=O)(=O)[C@@H]2C[C@@H](C(=O)NC3(C#N)CC3)N(C(=O)OC(C)(C)C)C2)c(Cl)c1` [Example 387, (2S,4R)-4-(2-Chloro-4-methoxy-benzenesulfonyl)-2-(1-cyano-cyclopropylcarbamoyl)-pyrrolidine-1-carboxylic acid tert-butyl ester]: 52500 nM and 6.7 nM.
Regarding `Cc1cc(N2C[C@H](S(=O)(=O)c3ccc(F)cc3C(F)(F)F)C[C@H]2C(=O)NC2(C#N)CC2)n(C2CCC2)n1` [Example 388, (2S,4R)-1-(2-Cyclobutyl-5-methyl-2H-pyrazol-3-yl)-4-(4-fluoro-2-trifluoromethyl-benzenesulfonyl)-pyrrolidine-2-carboxylic acid (1-cyano-cyclopropyl)-amide], the IC50 stood at 35600 nM in experiment [1] and 0.48 nM in experiment [2].
